Measured values as given in patent US20230141777A1, “COMPOSITION WHICH IS FOR TREATING OR PREVENTING RENAL CELL CANCER AND CONTAINS D-ALLOSE AS ACTIVE INGREDIENT, AND METHOD FOR TREATING OR PREVENTING CANCER USING SAME” (NATIONAL UNIVERSITY CORPORATION KAGAWA UNIVERSITY, priority 2020, published 2023).
“Also recorded” adds a separate entry of the source.

Tests used:
[1] = Change in tumor D-allose concentration after intraperitoneal or oral administration of D-allose to renal cell carcinoma xenotransplantation mouse model (HPLC); format: in vivo; details: for D-allose detected in tumor: by 1 hour after oral administration
Description: (§1) The experiment was conducted using two different human renal cell carcinoma cell lines (Caki-1, ACHN). Each of the cells was cultured in a moist environment at 37° C., 5% CO2 using 10% fetal bovine serum and RPMI-1640 culture solution (2000 mg D-glucose/L) containing HEPES buffer and penicillin-streptomycin. The renal cell carcinoma xenotransplantation mouse model was prepared by adjusting cultured cells to a 1.0×10^5 cell/mL cell suspension with MEM culture solution, injecting 0.1 mL into the femoral subcutaneous tissue of Female athymic nude mice (BALB/c nu/nu, 6 weeks old), and confirming a tumor volume of 200 mm^3 or greater after 1 week, and it was used for the following experiment.
In a xenotransplantation mouse model of two different human renal cell carcinoma cell lines (Caki-1, ACHN), tumors were enucleated from the mice at the 1st hour, 2nd hour and 4th hour before and after administration of D-allose by intraperitoneal administration (FIGS. 1(A) and (B)) or oral administration (FIGS. 1(C) and (D)) of a solution of rare sugar D-allose prepared using physiological saline to 400 mg/kg/0.2 mL. The monosaccharides in the supernatant obtained by ultrasonic disruption of the tumors in 1 mL of PBS and centrifugal separation at 3000 rpm for 5 minutes were labeled with ABEE (4-aminobenzoic acid ethyl ester) and the D-allose was quantitatively analyzed by HPLC (high performance liquid chromatography) (FIG. 1).

[2] = tested on: human renal cell carcinoma cell line Caki-1 xenotransplantation mouse model; test: Change in tumor volume and tumor histology in renal cell carcinoma xenotransplantation mouse model by oral administration of D-allose; format: in vivo; details: Caki-1 xenograft
Description: as §1
(§2) A D-allose-containing solution was orally administered from day 1, where “day 0” was defined as the day when the tumor size of the renal cell carcinoma xenotransplantation mouse model prepared using Caki-1 as the human renal cell carcinoma cell line reached 200 mm^3 or greater.
(§3) Either 0.2 mL physiological saline or 0.2 mL physiological saline dissolving 400 mg/kg D-allose was injected into the esophagus of mice divided into 2 groups (control group and D-allose group), through a Neraton catheter. The administration was carried out once a day for a total of 32 consecutive days. The mouse body weights and the long and short diameters of the tumors were measured twice a week. The tumor volumes were calculated as: tumor long diameter×short diameter×short diameter×0.5. The livers and kidneys were extracted with the tumors from the mice on the 32nd day after the start of oral administration and used for the subsequent experiment.
(§4) The tumors, kidneys and livers were extracted from the renal cell carcinoma xenotransplantation mouse models (control group and D-allose-administered group, 32nd day after start of administration), and the tissues were fixed with 4% paraformaldehyde/phosphate buffer, embedded in paraffin and sliced to thicknesses of 4 μm. The thin slices were stained with hematoxylin-eosin staining (HE staining) and observed (FIG. 3, FIG. 5 and FIG. 6).

[3] = Body weight and HE staining of kidney and liver tissue in renal cell carcinoma xenotransplantation mouse model after oral D-allose; format: in vivo
Description: as §2, §3, §4

[4] = tested on: human colorectal cancer cell line (DLD-1) xenotransplantation mice; test: Change in tumor volume in colorectal cancer xenotransplantation mouse model by administration of D-allose; format: in vivo; details: DLD-1 xenograft, Mann-Whitney U test
Description: A cell suspension containing 2.0×10^6 cells of a human colorectal cancer cell line (DLD-1) was injected into femoral subcutaneous tissue of Male athymic nude mice (BALB/c Nude (nu/nu)mice), and adjustment of D-allose or D-glucose was initiated with “day 0” defined as the day when the tumor volume reached about 100 to 150 mm^3.
(§5) D-allose or D-glucose was intraperitoneally administered at 400 mg/kg to colorectal cancer xenotransplantation mice whose tumor volumes had reached about 100 mm^3. Physiological saline was used as the solvent for adjustment to 0.2 ml, and administration was once per day for a total of 30 days. The tumor volumes were measured every 6 days.
as §5, with “orally” for “intraperitoneally”, “100” for “400”, “100 to 150” for “100”, “Distilled water” for “Physiological saline”

[5] = tested on: human renal cell carcinoma cell line Caki-1; test: Intracellular reactive oxygen species (ROS) production, DCF-DA fluorescence, Caki-1; format: cell-based; details: Caki-1, 50 mM D-allose, co-culture 1 hour, vs DMSO
Description: (§6) After seeding human renal cell carcinoma cell line (Caki-1 or ACHN) at 5.0×10^5 in a 100 mm dish, culturing for 24 hours and then co-culturing with DMSO or D-allose (50 mM) for 1 hour, 10 μM 2,7-Dichlorofluorescin diacetate (DCF-DA; D6883, Sigma-Aldrich, USA) was added and the mixture was allowed to stand at 37° C. for 30 minutes. The cells were recovered with trypsin treatment and collected by centrifugal separation for 5 minutes at 3500×g, after which they were resuspended in ice-cold PBS and a CytoFLEX S (Beckman Coulter, CA, USA) was used to detect the DCF-DA fluorescence. Each experiment was conducted 3 times, and the data were analyzed using CytExpert software and recorded as the average value±SE (FIG. 8).

[6] = tested on: human renal cell carcinoma cell line ACHN; test: Intracellular reactive oxygen species (ROS) production, DCF-DA fluorescence, ACHN; format: cell-based; details: 50 mM D-allose, co-culture 1 hour, vs DMSO
Description: as §6

TXNIP [7] = test: TXNIP expression (Western blotting) in Caki-1; format: cell-based, human; details: Caki-1, 10, 25 or 50 mM D-allose, 48 hours
Description: (§7) A human renal cell carcinoma cell line (Caki-1 or Caki-2) was seeded at 5.0×10^5 in a 100 mm dish and cultured for 24 hours, after which it was co-cultured with D-allose (10, 25 or 50 mM). After 48 hours, the cells were recovered and the protein was extracted, and the concentration of each protein was measured using a Bio-Rad Protein Assay Kit (Bio-Rad, Laboratories, Inc. USA). A protein sample ([…]) was electrophoresed on 10% Mini-PROTAN TGX Precast Gel (Bio-Rad) and a Trans-Blot Turbo transfer system (Bio-Rad) was used for transfer onto a PVDF Western Blotting Membrane. After blocking treatment for 1 hour (Superblock T20. Thermo, Rockford. Ill., USA), anti-TXNIP antibody (D5F3E, CST. USA. 1:1000) was used as primary antibody for reaction using an iBind Flex Western System (Thermo). The loading control used was β-actin (ab8227, abcam, CamBridge, UK, 1:1000).

TXNIP [8] = test: TXNIP expression (Western blotting) in Caki-2; format: cell-based, human; details: Caki-2, 10, 25 or 50 mM D-allose, 48 hours
Description: as §7

tumor D-allose concentration with oral administration relative to intraperitoneal administration ([1]; 400 mg/kg, Caki-1 and ACHN tumors (not distinguished)): about 80%
D-allose detected in tumor ([1]; ACHN tumors, 400 mg/kg): detected in all of the tumors
D-allose detected in tumor ([1]; Caki-1 tumors, 400 mg/kg): detected in all of the tumors
time of maximum intratumoral D-allose concentration ([1]; Caki-1 tumors, oral administration, 400 mg/kg): 1 h
SMILES: O=C[C@H](O)[C@H](O)[C@H](O)[C@H](O)CO [D-allose]
uptake into renal cell carcinoma compared to non-transintestinal (intraperitoneal) administration ([1]; transintestinal administration, summary statement): equivalent rate or with approximately about 20% reduction
tumor volume at the 32nd day compared to tumor volume before D-allose administration ([2]; oral 400 mg/kg once a day for 32 days): significantly reduced
tumor volume compared to the control group ([2]; oral 400 mg/kg once a day, after the 8th day, Mann-Whitney U test): significantly reduced
nuclear fission in HE stained tumor tissue ([2]; oral 400 mg/kg/day, 32nd day, evaluation by a pathology specialist): reduced nuclear fission
body weight compared to the control group ([3]; oral 400 mg/kg once a day, 32-day observation period): no significant difference
HE staining images of kidney tissue compared to the control group ([3]; oral 400 mg/kg/day, 32nd day): No particular difference
HE staining images of liver tissue compared to the control group ([3]; oral 400 mg/kg/day, 32nd day): No particular difference
tumor volume compared to the D-glucose group ([4]; intraperitoneal 400 mg/kg once per day for 30 days, after the 18th day): significantly smaller
tumor volume compared to the D-glucose group ([4]; oral 100 mg/kg once per day for 30 days, 100 mg/kg): no significant difference; also recorded: has not exhibited the anticancer effect
intracellular ROS [5]: significantly increased
intracellular ROS [6]: significantly increased
TXNIP expression (TXNIP [7]): increases TXNIP expression in a D-allose dose-dependent manner
TXNIP expression (TXNIP [8]): increases TXNIP expression in a D-allose dose-dependent manner
